The results in this text go back to patent publication US20260001792A1, “METHOD FOR PRODUCING SLIME-SUPPRESSING AUXILIARY AGENT FOR REVERSE OSMOSIS MEMBRANE, SLIME-SUPPRESSING AUXILIARY AGENT FOR REVERSE OSMOSIS MEMBRANE, AND WATER TREATMENT METHOD” (ORGANO CORPORATION, priority 2022, published 2026).

SMILES strings stand for the structures.

Data set [1] can be described thus: Effects on membrane: flux and EC rejection rate before/after contact with agent.
Experimental: The effects on a reverse osmosis membrane were evaluated for the case where the mixture of the slime-suppressing auxiliary agent for a reverse osmosis membrane (potassium iodide aqueous solution (KI)) and sodium hypochlorite (NaClO) from the example was used.
The flux and EC rejection rate of the reverse osmosis membrane are measured prior to contact with the agent • 2. The agent is brought into contact with the reverse osmosis membrane at a theoretical value for the CT value of 30,000 (mg/L as Cl^2×h) • 3. The flux and EC rejection rate of the reverse osmosis membrane are measured following the contact with the agent
The flux was calculated by dividing the permeate volume per prescribed time period at 25° C. by the membrane surface area and the operating pressure. The EC rejection rate was determined by measuring the conductivity of the permeate and the conductivity of the feed water using a conductivity measurement apparatus, with the EC rejection rate calculated as (100−[permeate conductivity/feed water conductivity]×100).
Data set [2] can be described thus: Effect of amount added of iodide ions on oxidation-reduction potential (ORP). The note with it: sodium hypochlorite 1 mg/L as Cl2, stirred 3 minutes after potassium iodide addition. Type of data set: physicochemical. The protocol: A sodium hypochlorite aqueous solution was added to ultrapure water prepared with a prescribed pH value in sufficient amount to provide 1 mg/L as Cl2, potassium iodide was then added to the solution and stirred for 3 minutes, and the oxidation-reduction potential (ORP) was then measured. […] The oxidation-reduction potential (ORP) was measured using an ORP meter (RM-2oP) manufactured by DKK-TOA Corporation.

`OCl` [NaClO, sodium hypochlorite]: the Flux after contact in data set [1] (ESPA2, pH 7, after contact at CT value 30,000) is 4.1 m/(d · MPa). The Flux before contact in data set [1] (ESPA2, pH 7, baseline before contact with agent) is 2.0 m/(d · MPa).
`[Na+].[O-]Cl` [Reference Example 8, sodium hypochlorite]: in data set [2] (pH 4), the ORP came to 837 mV.
Take `[Na+].[O-]Cl` [Reference Example 10, sodium hypochlorite]: the ORP in data set [2] (pH 7) stood at 638 mV.
In data set [2] (pH 10), `[Na+].[O-]Cl` [Reference Example 12, sodium hypochlorite] came in with an ORP of 359 mV.
